Results reported in PubChem BioAssay AID1053153 (Broad Institute, 2014).

Tested on: HepG2 + statin, PCSK9 mRNA qPCR, 24 h
Experiment: statin-induced PCSK9 expression modulation – cell-based, HepG2, RT-PCR, atorvastatin or simvastatin, cherry-pick, mechanism study for Trib1 inducer project, late-stage follow-up (AID 1053153)

Compound | fold change
CN1C(=O)c2cc(NC(=O)c3ccc(C(F)(F)F)cc3)ccc2OC[C@@H]2O[C@@H](CC(=O)NC3Cc4ccccc4C3)CC[C@@H]21 | 10
CN1C(=O)c2cc(NC(=O)c3ccc(C(F)(F)F)cc3)ccc2OC[C@@H]2O[C@H](CC(=O)NC3Cc4ccccc4C3)CC[C@@H]21 | 2
